Measurements as given in patent US5929074A, “Pyridazinone derivatives with pharmaceutical activity” (Nissan Chemical Industries, Ltd., priority 1993, dated 1999).
Where two headings read alike, the source gives them in different places.

Legend:
platelet = assay: Anti-platelet aggregation effect in rabbits (ADP-induced); type: cell-based, rabbit; conditions: read-out: IC50 (concentration at which aggregation of control sample was 50% inhibited)
Protocol: Anti-platelet aggregation effect in rabbits
Blood was collected from the abdominal artery of Japanese white male rabbits (weight: 1.8 to 2.5 kg) into a syringe containing 1/10 volume 3.8% sodium citrate. The blood thus obtained was subjected to a centrifugation at 200×g for 7 minutes at room temperature to obtain platelet rich plasma (PRP). Furthermore, the residue was subjected to a centrifugation at 2000×g for 10 minutes to obtain platelet poor plasma (PPP). The measurement was effected by diluting PRP with PPP to 300,000/mm^3. PRP and PPP were placed in a cuvette, and the measurement range of transmittance was adjusted to 0% in the case of PRP and to 100% in the case of PPP. Thereafter, a test sample drug dissolved in 100% dimethylsulfoxide (DMSO) was added to PRP (the final concentration of DMSO: 0.25%). After incubation was effected at 37° C. at 900 rpm for 2 minutes, an aggregating agent was added to record an aggregation curve. The anti-platelet aggregation effect of the test sample drug was expressed by a concentration (IC50 : μM) at which the aggregation of control sample was 50% inhibited. The aggregating agent ADP was used at the minimum concentration (5 to 10 μM) which caused the maximum aggregation. The measurement of platelet aggregation was carried out by using NBS HEMA TRACER 601.

guinea-pig trachea [1] = assay: Bronchodilating effect in vitro, Method 1-1: relaxation of LTD4-contracted guinea-pig trachea strips; type: cell-based; conditions: Cavia porcellus, read-out: EC50 (concentration to achieve 50% relaxation relative to relaxation by 1 mM aminophylline)
Protocol: (§1) A test sample drug was dissolved in 100% dimethylsulfoxide (DMSO, Wako Junyaku) and diluted for use. Leukotriene D4 (LTD4, Ultrafine) and isoproterenol (Isoproterenol, Sigma) were diluted with distilled water. Indomethacin (Indo, Sigma) was dissolved in 100% ethanol (EtOH, Komune Kagaku). Aminophylline (AP, Sigma), histamine dihydrochloride (His, Wako Junyaku) was dissolved in distilled water. The final concentrations of DMSO and EtOH in a bath were made not higher than 0.25% v/v and not higher than 0.1% v/v, respectively. Method 1:1:
(§2) A guinea-pig of 300-450 g was exsanguinated, and the trachea was taken out. After removing fat and connective tissues, it was cut and divided into 2 to 3 spiral strips, each having a width of about 2 mm and containing 4 smooth muscle tissues. Each specimen thus prepared was suspended in an organ bath of 8 ml containing a modified Tyrode solution aerated with 95% O2 +5% CO2 at 37° C., and a load of 1 g was applied thereto. The relaxation of the muscle was recorded by a pen recorder (Yokogawa Hokushin Electric, type 3066) by means of an isotonic transducer (Nihon Kohden, TD-112S).
The composition of the modified Tyrode solution was as follows (mM):
The specimen was allowed to stand for 50-60 minutes, and was contracted with histamine dihydrochloride (100 μM). After the reaction became constant, it was washed and allowed to stand for 20-30 minutes. Indomethacin (5 μM) was added thereto, and after incubation for 30 minutes, the specimen was contracted by adding LTD4 (30 nM). After the reaction-became stable, a test sample drug was accumulatively administered. Finally, AP (1 mM) was added to achieve the maximum relaxation reaction. The result was expressed by relaxation percent relative to the relaxation by AP which was rated 100%, and a concentration to achieve 50% relaxation (EC50, μM) was measured. As a control drug, AP was used.

[2] = tested on: anaphylactic bronchoconstriction mediated by endogeneously liberated SRS-A; assay: Effect on anaphylactic bronchoconstriction mediated by endogeneously liberated SRS-A in passively sensitized guinea-pig; type: in vivo; conditions: for inhibition in vivo at 30 mg/kg: Cavia porcellus, po, 2 h
Protocol: Effect on anaphylactic bronchoconstriction mediated by endogeneously liberated SRS-A in passively sensitized guinea-pig
Male guinea-pigs (350-450 g) were passively sensitized with intravenous (i.v.) injection of 0.125 ml rabbit anti-EA (egg albumin) serum (Capple Laboratories) 1 to 2 days preceding the experiment. Antigen-induced anaphylactic bronchoconstrictions mediated by endogeneously liberated SRS-A were measured by modified method of Konzett and Rossler (Arch. Exp. Path. Pharmak., 195, 71, 1940). Sensitized quinea-pigs were anaesthetized with intraperitoneal injection of urethane (1.5 g/kg). The right jugular vein was cannulated for the administration of the all agents and trachea was cannulated to record total pulmonary resistance. Guinea-pigs were artificially ventilated by a small animal respirator (Shinano, Model SN-480-7) set at a stroke volume of 4.5 ml and a rate of 50 breaths per min. The change in pulmonary resistance was measured with a pressure transducer (Nihon Kohden, Model TP-602T) connected to a T-tube on the tracheal cannula. The percentage of the maximum bronchoconstriction obtained by clamping off the trachea. Following surgical preparation, the animals were pretreated with indomethacin (2 mg/kg, 10 min), pyrilamine (2 mg/kg, 6 min) and propranolol (0.1 mg/kg, 5 min) prior to the EA challenge (0.2 mg/kg). All test compounds were administered orally 2 hours before the EA challenge. Inhibition (%) of broncho-constriction was determined as follows: Inhibition (%)=(1.0-% maximum bronchoconstriction in test/% maximum bronchoconstriction in control)×100. The maximum bronchoconstriction was 62±6% (Mean±S.E.M; n=6) and the number of test animals was 5-6.

histamine H1 receptor = target: T1, histamine H1 receptor (Bos taurus, UniProt P30546); assay: Binding test employing 3H-pyrilamine (histamine H1 receptor-binding test); conditions: 0.5 h
T1 construct: suspension of bovine cerebellum; from tissue; host or cells: bovine cerebellum
T1 sequence (P30546 whole entry): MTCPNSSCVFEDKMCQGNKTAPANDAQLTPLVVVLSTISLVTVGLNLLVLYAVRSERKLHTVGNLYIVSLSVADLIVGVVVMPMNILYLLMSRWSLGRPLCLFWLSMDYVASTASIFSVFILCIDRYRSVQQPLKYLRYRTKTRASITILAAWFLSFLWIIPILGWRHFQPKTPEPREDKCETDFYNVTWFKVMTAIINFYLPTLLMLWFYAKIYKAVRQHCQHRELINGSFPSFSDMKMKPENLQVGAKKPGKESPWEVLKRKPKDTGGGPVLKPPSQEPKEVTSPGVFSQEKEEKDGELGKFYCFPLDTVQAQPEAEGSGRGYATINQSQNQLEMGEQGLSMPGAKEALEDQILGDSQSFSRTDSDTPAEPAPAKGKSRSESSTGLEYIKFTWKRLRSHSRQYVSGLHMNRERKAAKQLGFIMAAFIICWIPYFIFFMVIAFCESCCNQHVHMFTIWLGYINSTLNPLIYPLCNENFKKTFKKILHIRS
Protocol: Tritiated pyrilamine was added to a suspension of bovine cerebellum and a 50 mM phosphate buffer solution (pH 7.5), and the mixture was left to stand still at 25° C. for 30 minutes. Then, the mixture was rapidly filtered under suction through a glass fiber filter paper, and the radio activities on the filter paper were measured.

guinea-pig trachea [3] = assay: Bronchodilating effect in vitro, Method 1-2: relaxation of guinea-pig trachea strips (no LTD4 contraction); type: cell-based; conditions: Cavia porcellus, read-out: EC50 (concentration to achieve 50% relaxation relative to relaxation by 1 mM aminophylline)
Protocol: as §1, §2
The same measuring method as method 1-1 was employed. The specimen was allowed to stand for from 60 to 90 minutes and then relaxed by an addition of 1 μM of isopreterenol. The specimen was washed, and this operation was repeated at an interval of from 30 to 40 minutes until a constant relaxation reaction was reached. Then, a test sample drug was accumulately applied to relax the specimen. Finally, 1 mM of AP was added to achieve the maximum relaxation reaction. The result was expressed by relaxation percent relative to the relaxation by AP which was rated 100%, and a concentration to achieve 50% relaxation (EC50, μM) was obtained. The final concentration of DMSO in the bath was adjusted to be 0.2 v/v%. As a control drug, AP was used.

[4] = Oryctolagus cuniculus, Platelet, rabbit PRP, ADP 5 to 10 μM, 37° C.
[5] = Method 1-1, LTD4 (30 nM) contracted trachea, indomethacin 5 μM
[6] = 30 mg/kg, orally 2 hours before EA challenge
[7] = 10 μM, bovine cerebellum, pH 7.5, 25° C., 30 minutes, read-out: Inhibition ratio against H1-receptor
[8] = Method 1-2, trachea conditioned with 1 μM isoproterenol, no LTD4, DMSO 0.2 v/v%
[9] = 30 mg/kg, orally 2 hours before EA challenge, read-out: Inhibition of broncho-constriction

`COc1ccc(CNc2cn[nH]c(=O)c2Br)cc1OCCN1CCN(Cc2ccc(Cl)cc2)CC1.Cl` [Compound 7, 4-Bromo-5-[3-{2-(4-(4-chlorobenzyl)-piperazin-1-yl)-ethoxy}-4-methoxybenzylamino]-3(2H)-pyridazinone hydrochloride] was tested, and the IC50 (platelet; [4]) was 5400 nM, the EC50 (guinea-pig trachea [1]; [5]) was 490 nM and the Inhibition of broncho-constriction [2, 6] was 59%. For the same molecule, the inhibition at 10 µM (histamine H1 receptor; pH 7.5, read-out: Inhibition ratio against H1-receptor, 10 μM, bovine cerebellum, pH 7.5, 25° C., 30 minutes) was 56.1%.
`COc1ccc(CNc2cn[nH]c(=O)c2Br)cc1OCCN1CCN(Cc2ccc(Cl)cc2)CC1.O=C(O)/C=C/C(=O)O` [Compound 8, 4-Bromo-5-[3-{2-(4-(4-chlorobenzyl)-piperazin-1-yl)-ethoxy}-4-methoxybenzylamino]-3(2H)-pyridazinone fumarate] gave an IC50 (platelet; rabbit PRP, ADP 5 to 10 μM, 37° C., fumarate) of 5500 nM, an Inhibition of broncho-constriction [2, 6] of 32% and an inhibition at 10 µM (histamine H1 receptor; [7]) of 56.5%.
Molecule `CCn1ncc(NCc2ccc(OC)c(OCCN3CCN(Cc4ccc(F)cc4)CC3)c2)c(Cl)c1=O` [Compound 17] has an EC50 (guinea-pig trachea [1]; [5]) of 3300 nM and an inhibition at 10 µM (histamine H1 receptor; [7]) of 55.8%.
In the case of `COc1ccc(CNc2cn[nH]c(=O)c2Br)cc1OCCCN1CCN(Cc2ccccc2)CC1` [Compound 22], the IC50 (platelet; [4]) is reported as 2100 nM, the EC50 (guinea-pig trachea [1]; [5]) is reported as 390 nM and the inhibition at 10 µM (histamine H1 receptor; [7]) is reported as 86.6%.
For `COc1ccc(CNc2cn[nH]c(=O)c2Cl)cc1OCCCN1CCN(Cc2ccccc2)CC1` [Compound 23], the IC50 (platelet; [4]) was 4600 nM, the EC50 (guinea-pig trachea [1]; [5]) was 1300 nM and the inhibition at 10 µM (histamine H1 receptor; [7]) was 92.2%.
`COc1ccc(CNc2c([N+](=O)[O-])n[nH]c(=O)c2Cl)cc1OCCCN1CCN(Cc2ccccc2)CC1` [Compound 24] showed an EC50 (guinea-pig trachea [1]; [5]) of 2000 nM, an EC50 (guinea-pig trachea [3]; [8]) of 980 nM and an inhibition at 10 µM (histamine H1 receptor; [7]) of 89.2%.
For `COc1ccc(CNc2c(Cl)n[nH]c(=O)c2Cl)cc1OCCCN1CCN(Cc2ccccc2)CC1` [Compound 25], the IC50 (platelet; [4]) was 5100 nM, the EC50 (guinea-pig trachea [1]; [5]) was 470 nM and the inhibition in vivo at 30 mg/kg [2, 9] was 59%. It also gave an inhibition at 10 µM (histamine H1 receptor; [7]) of 94.4%.
`COc1ccc(CNc2cn[nH]c(=O)c2Cl)cc1OCCCN1CCN(Cc2ccc(F)cc2)CC1` [Compound 26] showed an EC50 (guinea-pig trachea [1]; [5]) of 750 nM, an EC50 (guinea-pig trachea [3]; [8]) of 910 nM and an inhibition in vivo at 30 mg/kg [2, 9] of 36%. For the same molecule, the inhibition at 10 µM (histamine H1 receptor; [7]) was 92.6%.
For `COc1ccc(CNc2c([N+](=O)[O-])n[nH]c(=O)c2Cl)cc1OCCCN1CCN(Cc2ccc(Cl)cc2)CC1` [Compound 29], the inhibition at 10 µM (histamine H1 receptor; [7]) was 93.6%.
Molecule `COc1ccc(CNc2c(Cl)n[nH]c(=O)c2Cl)cc1OCCCN1CCN(Cc2ccc(Cl)cc2)CC1` [Compound 30] has an EC50 (guinea-pig trachea [1]; [5]) of 2600 nM and an inhibition at 10 µM (histamine H1 receptor; [7]) of 90.5%.
For `COc1ccc(CNc2cn[nH]c(=O)c2Cl)cc1OCC(=O)N1CCN(Cc2ccccc2)CC1` [Compound 36], the IC50 (platelet; Oryctolagus cuniculus, Platelet) was 1600 nM, the EC50 (guinea-pig trachea [1]) was 320 nM and the EC50 (guinea-pig trachea [3]) was 240 nM. The inhibition in vivo at 30 mg/kg ([2]; read-out: Inhibition of broncho-constriction, 30 mg/kg, orally 2 hours before EA challenge) was 41%.
In the case of `COc1ccc(CNc2cn[nH]c(=O)c2Cl)cc1OCC(=O)N1CCN(Cc2ccc(F)cc2)CC1` [Compound 39], the IC50 (platelet; [4]) is reported as 1400 nM, the EC50 (guinea-pig trachea [1]; [5]) is reported as 160 nM and the EC50 (guinea-pig trachea [3]; [8]) is reported as 170 nM. The inhibition in vivo at 30 mg/kg [2, 9] was 63%.
In the case of `COc1ccc(CNc2cn[nH]c(=O)c2Br)cc1OCC(=O)N1CCN(Cc2ccc(F)cc2)CC1` [Compound 43], the IC50 (platelet; [4]) is reported as 2200 nM, the EC50 (guinea-pig trachea [1]; [5]) is reported as 400 nM and the EC50 (guinea-pig trachea [3]; [8]) is reported as 280 nM. For the same molecule, the inhibition in vivo at 30 mg/kg [2, 9] was 62%.
Work on `COc1ccc(CNc2cn[nH]c(=O)c2Cl)cc1OCCCC(=O)N1CCN(Cc2ccccc2)CC1` [Compound 47] yielded an IC50 (platelet; [4]) of 5700 nM, an EC50 (guinea-pig trachea [1]; [5]) of 770 nM and an EC50 (guinea-pig trachea [3]; [8]) of 540 nM. For the same molecule, the inhibition in vivo at 30 mg/kg [2, 9] was 37%.
Work on `CCOc1n[nH]c(=O)c(Cl)c1NCc1ccc(OC)c(OCC(=O)N2CCN(Cc3ccc(F)cc3)CC2)c1` [Compound 64] yielded an IC50 (platelet; [4]) of 390 nM, an EC50 (guinea-pig trachea [1]; [5]) of 320 nM and an EC50 (guinea-pig trachea [3]; [8]) of 61 nM. It also gave an inhibition in vivo at 30 mg/kg [2, 9] of 26%.
`CCOc1n[nH]c(=O)c(Cl)c1NCc1ccc(OC)c(OCC(=O)N2CCN(Cc3ccc4ccccc4n3)CC2)c1` [Compound 67] gave an IC50 (platelet; [4]) of 400 nM, an EC50 (guinea-pig trachea [1]; [5]) of 170 nM and an EC50 (guinea-pig trachea [3]; [8]) of 41 nM. The inhibition in vivo at 30 mg/kg [2, 9] was 29%.
